# Patent publication US8962844B2, “1,3,4-oxadiazole and 1,3,4-thiadiazole β-lactamase inhibitors” (priority 2012, dated 2015)
# Structures can show the parent of a compound that is named as a salt.
# Test system: bacterial strains that express the class D cephalosporinase OXA-15
# Experiment: Standard BLI potentiation MIC / synergy MIC (sMIC) assays run in the presence of a β-lactam, OXA-15 expressing strains
# Type: cell-based, E. coli
# Conditions: BLI in combination with a β-lactam; comparison with Avibactam (comparator compound CCC)
# From the text: Unless otherwise indicated, the activity of the BLI compounds can be described by the MIC value obtained from a Synergy MIC assay or a BLI potentiation assay (e.g as described herein), both of which are run in the presence of a β-lactam.
# A set of β-lactamase expressing isogenic E. coli strains was constructed by cloning a β-lactamase gene into a customized derivative of pBR322 (GenBank Accession Number J01749) and transforming the engineered plasmids into E. coli. The NdeI restriction site within the plasmid backbone of pBR322 was removed to generate pBR322 ΔNdeI. The pBR322 ΔNdeI vector itself, minus the blaTEM-1 gene, was amplified using two primers: (1) pBR-Pbla 5′-cgcatatgactettectttttcaatattattg-3, SEQ ID 1, a primer with an engineered NdeI restriction site at the 3′ end of the blaTEM-1 promoter and (2) pBR-vec-1 5′-[…]-3′, SEQ ID 2, a primer with an engineered BamHI restriction site at the 3′ end of the blaTEM-1 open reading frame. The chloramphenicol resistance gene, cat, was generated by PCR amplification from pKD3 (GenBank Accession Number AY048742) using primers with an engineered NdeI restriction site at the 5′ end (Pbla-cat 5′-[…]-3′, SEQ ID 3) and an engineered BamHI restriction site at the 3′ end (Vec-1-cat 5′-[…]-3′, SEQ ID 4) of the resistance gene. The two PCR products, pBR322 ΔNdeI and cat were ligated together generating pBR-CBST (pBR322 ΔNdeI ΔTEM-1::cat Seq. ID 5) which retains both the pBR322 tetracycline resistance cassette, tetA, and the plasmid origin of replication but the blaTEM-1 gene was replaced by the cat gene.
# Using this engineering strategy a number of plasmids producing β-lactamase genes from different classes (see below) were generated using synthetic genes with an engineered NdeI restriction site at the 5′ end and BamHI restriction site at the 3′ end of each gene (GenScript). Both the synthetic β-lactamase genes and cat gene were ligated into the NdeI/BamHI sites of the pBR322 ΔNdeI PCR product and transformed into electrocompetent E. coli ElectroMax DH10B (Invitrogen/Life Technologies). E. coli DH10B harboring the recombinant plasmids were selected on LB agar (supplemented with 25 μg/mL tetracycline) and single isolated colonies were then inoculated into 5 mL LB media (supplemented with 25 μg/mL tetracycline), and incubated at 37° C. with aeration (250 rpm) for 18 hrs. The cultures were frozen back at −80° C. in 20% glycerol. The DNA sequence of the cloned β-lactamase genes was confirmed. The β-lactamase gene expression in the recombinant E. coli strains was driven by the blaTEM-1 promoter in the pBR-CBST plasmid and was characterized by MIC profiling of the E. coli recombinant strains against comparator β-lactam/BLI combinations in broth microdilution assay.
# The experimental protocol was performed according to Clinical and Laboratory Standards Institute (CLSI) guidelines with modifications as described below (CLSI guidelines can be derived from the CLSI document M07-A9 published in January 2012: “Methods for Dilution Antimicrobial Susceptibility Tests for Bacteria That Grow Aerobically; Approved Standard-Ninth Edition”).
# To prepare for MIC testing, frozen glycerol stocks of clinical isolates (Klebsiella pneumoniae, Eschericia coli, Enterobacter spp, Citrobacter spp, or Pseudomonas aeruginosa) were used to streak for isolated colonies on rich, non-selective, tryptic soy agar containing 5% sheep's blood (TSAB). Frozen glycerol stocks of laboratory engineered, isogenic E. coli strains, which contain cloned β-lactamase expressing plasmids were used to streak for isolated colonies on rich, selective LB agar supplemented with 25 μg/mL tetracycline to maintain the plasmid. All strains were incubated at 37° C. for 18-24 hrs.
# On the day of testing, primary cultures were started by scraping off 5-10 colonies from the TSAB plates containing clinical strains or the tetracycline supplemented LB plates containing engineered strains. […]
row,Compound,"activity against bacterial strains that express the class D cephalosporinase OXA-15, compared with Avibactam"
1,"N=C(N)NCc1nnc([C@@H]2CC[C@@H]3CN2C(=O)N3OS(=O)(=O)O)o1 [Compound 704, (2S,5R)-2-(5-(guanidinomethyl)-1,3,4-oxadiazol-2-yl)-7-oxo-1,6-diazabicyclo[3.2.1]octan-6-yl hydrogen sulfate]",more active than Avibactam
2,"Nc1nnc([C@@H]2CC[C@@H]3CN2C(=O)N3OS(=O)(=O)O)o1 [Compound 707, (2S,5R)-2-(5-amino-1,3,4-oxadiazol-2-yl)-7-oxo-1,6-diazabicyclo[3.2.1]octan-6-yl hydrogen sulfate]",more active than Avibactam
3,"N=C(N)N1CCC(c2nnc([C@@H]3CC[C@@H]4CN3C(=O)N4OS(=O)(=O)O)o2)CC1 [Compound 712, (2S,5R)-2-(5-(1-carbamimidoylpiperidin-4-yl)-1,3,4-oxadiazol-2-yl)-7-oxo-1,6-diazabicyclo[3.2.1]octan-6-yl hydrogen sulfate]",more active than Avibactam
4,"O=C1N2C[C@@H](CC[C@H]2c2nnc(N3CCNCC3)o2)N1OS(=O)(=O)O [Compound 713, (2S,5R)-7-oxo-2-(5-(piperazin-1-yl)-1,3,4-oxadiazol-2-yl)-1,6-diazabicyclo[3.2.1]octan-6-yl hydrogen sulfate]",more active than Avibactam
5,"N=C(N)NCCCc1nnc([C@@H]2CC[C@@H]3CN2C(=O)N3OS(=O)(=O)O)o1 [Compound 714, (2S,5R)-2-(5-(3-guanidinopropyl)-1,3,4-oxadiazol-2-yl)-7-oxo-1,6-diazabicyclo[3.2.1]octan-6-yl hydrogen sulfate]",more active than Avibactam
6,"NCC(O)c1nnc([C@@H]2CC[C@@H]3CN2C(=O)N3OS(=O)(=O)O)o1 (stereo partly drawn) [Compound 715, (2S,5R)-2-(5-(2-amino-1-hydroxyethyl)-1,3,4-oxadiazol-2-yl)-7-oxo-1,6-diazabicyclo[3.2.1]octan-6-yl hydrogen sulfate]",more active than Avibactam
7,"NCCNCCc1nnc([C@@H]2CC[C@@H]3CN2C(=O)N3OS(=O)(=O)O)o1 [Compound 716, (2S,5R)-2-(5-(2-((2-aminoethyl)amino)ethyl)-1,3,4-oxadiazol-2-yl)-7-oxo-1,6-diazabicyclo[3.2.1]octan-6-yl hydrogen sulfate]",more active than Avibactam
8,"NCC(N)c1nnc([C@@H]2CC[C@@H]3CN2C(=O)N3OS(=O)(=O)O)o1 (stereo partly drawn) [Compound 717, (2S,5R)-2-(5-(1,2-diaminoethyl)-1,3,4-oxadiazol-2-yl)-7-oxo-1,6-diazabicyclo[3.2.1]octan-6-yl hydrogen sulfate]",more active than Avibactam
9,"O=C1N2C[C@@H](CC[C@H]2c2nnc(C3CCNCC3)s2)N1OS(=O)(=O)O [Compound 719, (2S,5R)-7-oxo-2-(5-(piperidin-4-yl)-1,3,4-thiadiazol-2-yl)-1,6-diazabicyclo[3.2.1]octan-6-yl hydrogen sulfate]",more active than Avibactam
10,"O=C1N2C[C@@H](CC[C@H]2c2nnc(CC3CNC3)o2)N1OS(=O)(=O)O [Compound 725, (2S,5R)-2-(5-(azetidin-3-ylmethyl)-1,3,4-oxadiazol-2-yl)-7-oxo-1,6-diazabicyclo[3.2.1]octan-6-yl hydrogen sulfate]",more active than Avibactam
11,"NCC(O)Cc1nnc([C@@H]2CC[C@@H]3CN2C(=O)N3OS(=O)(=O)O)o1 (stereo partly drawn) [Compound 733, (2S,5R)-2-(5-(3-amino-2-hydroxypropyl)-1,3,4-oxadiazol-2-yl)-7-oxo-1,6-diazabicyclo[3.2.1]octan-6-yl hydrogen sulfate]",more active than Avibactam
12,"N=C(N)N[C@H]1C[C@H](c2nnc([C@@H]3CC[C@@H]4CN3C(=O)N4OS(=O)(=O)O)o2)C1 [Compound 748, (2S,5R)-2-(5-((1r,3S)-3-guanidinocyclobutyl)-1,3,4-oxadiazol-2-yl)-7-oxo-1,6-diazabicyclo[3.2.1]octan-6-yl hydrogen sulfate]",more active than Avibactam
13,"N[C@H]1C[C@H](NCc2nnc([C@@H]3CC[C@@H]4CN3C(=O)N4OS(=O)(=O)O)o2)C1 [Compound 757, (2S,5R)-2-(5-((((1r,3S)-3-aminocyclobutyl)amino)methyl)-1,3,4-oxadiazol-2-yl)-7-oxo-1,6-diazabicyclo[3.2.1]octan-6-yl hydrogen sulfate]",more active than Avibactam
14,"O=C1N2C[C@@H](CC[C@H]2c2nnc(CNC3CCNCC3)o2)N1OS(=O)(=O)O [Compound 769, (2S,5R)-7-oxo-2-(5-((piperidin-4-ylamino)methyl)-1,3,4-oxadiazol-2-yl)-1,6-diazabicyclo[3.2.1]octan-6-yl hydrogen sulfate]",more active than Avibactam
15,"NC1CCN(c2nnc([C@@H]3CC[C@@H]4CN3C(=O)N4OS(=O)(=O)O)o2)CC1 [Compound 773, (2S,5R)-2-(5-(4-aminopiperidin-1-yl)-1,3,4-oxadiazol-2-yl)-7-oxo-1,6-diazabicyclo[3.2.1]octan-6-yl hydrogen sulfate]",more active than Avibactam
16,"O=C1N2C[C@@H](CC[C@H]2c2nnc([C@@H]3CNCCN3)o2)N1OS(=O)(=O)O [Compound 778, (2S,5R)-7-oxo-2-(5-((S)-piperazin-2-yl)-1,3,4-oxadiazol-2-yl)-1,6-diazabicyclo[3.2.1]octan-6-yl hydrogen sulfate]",more active than Avibactam
17,"N[C@H]1CC[C@@H](c2nnc([C@@H]3CC[C@@H]4CN3C(=O)N4OS(=O)(=O)O)o2)CC1 [Compound 780, (2S,5R)-2-(5-((1s,4R)-4-aminocyclohexyl)-1,3,4-oxadiazol-2-yl)-7-oxo-1,6-diazabicyclo[3.2.1]octan-6-yl hydrogen sulfate]",more active than Avibactam
18,"N[C@H]1CC[C@H](c2nnc([C@@H]3CC[C@@H]4CN3C(=O)N4OS(=O)(=O)O)o2)CC1 [Compound 781, (2S,5R)-2-(5-((1r,4S)-4-aminocyclohexyl)-1,3,4-oxadiazol-2-yl)-7-oxo-1,6-diazabicyclo[3.2.1]octan-6-yl hydrogen sulfate]",more active than Avibactam
19,"O=C1N2C[C@@H](CC[C@H]2c2nnc(CCCN3CCNCC3)o2)N1OS(=O)(=O)O [Compound 792, (2S,5R)-7-oxo-2-(5-(3-(piperazin-1-yl)propyl)-1,3,4-oxadiazol-2-yl)-1,6-diazabicyclo[3.2.1]octan-6-yl hydrogen sulfate]",more active than Avibactam
20,"O=C1N2C[C@@H](CC[C@H]2c2nnc(N3CCNCC3)s2)N1OS(=O)(=O)O [Compound 797, (2S,5R)-7-oxo-2-(5-(piperazin-1-yl)-1,3,4-thiadiazol-2-yl)-1,6-diazabicyclo[3.2.1]octan-6-yl hydrogen sulfate]",more active than Avibactam
